# Like-named read-outs stand apart in the source and are kept apart here.
# Biological target: human Factor XIa (Homo sapiens (Human), UniProt P03951)
# Test: Factor XIa Assay
# Assay type: biochemical
# Details: read-out: FXIa Ki
# Procedure, shortened: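 Ki derived from the dependence of Vo/Vi on inhibitor concentration under a competitive-inhibition model, after pre-equilibration of enzyme and inhibitor. Reaction: 40 pM human FXIa, 100 μM Z-Gly-Pro-Arg-AFC, HEPES 50 mM pH 7.4 with NaCl, CaCl2 and PEG 8000; run at room temperature or 37° C.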
# [1] = purified human Factor XIa 40 pM, Z-Gly-Pro-Arg-AFC 100 μM, pH 7.4
# Sequence of human Factor XIa (P03951 388-625): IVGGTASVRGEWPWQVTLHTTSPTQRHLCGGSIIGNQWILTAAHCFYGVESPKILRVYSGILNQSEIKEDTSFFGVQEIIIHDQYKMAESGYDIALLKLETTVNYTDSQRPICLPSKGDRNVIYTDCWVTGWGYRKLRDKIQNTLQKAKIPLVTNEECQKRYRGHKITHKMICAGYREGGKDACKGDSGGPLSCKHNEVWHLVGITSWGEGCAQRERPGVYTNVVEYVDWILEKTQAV
# Sequence of human Factor XIa (P03951 19-387 partner): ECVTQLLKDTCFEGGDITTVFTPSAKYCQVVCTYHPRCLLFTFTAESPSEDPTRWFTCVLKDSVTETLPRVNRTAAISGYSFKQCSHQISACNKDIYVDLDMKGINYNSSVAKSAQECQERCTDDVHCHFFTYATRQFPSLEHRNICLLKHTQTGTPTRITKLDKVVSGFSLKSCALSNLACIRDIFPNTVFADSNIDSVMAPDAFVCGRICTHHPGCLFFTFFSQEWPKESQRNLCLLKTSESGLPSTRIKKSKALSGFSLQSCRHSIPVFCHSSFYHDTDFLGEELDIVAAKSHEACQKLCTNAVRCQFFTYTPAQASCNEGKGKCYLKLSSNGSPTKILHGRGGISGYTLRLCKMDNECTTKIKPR
SMILES,Ki [1],Ki
"O=C1Nc2ccc(Cl)cc2C2(CCN(C(=O)[C@H](Cc3ccccc3)NS(=O)(=O)c3ccc(C(=O)O)cc3)C2)O1 (stereo partly drawn) [Example 283, 4-(N-((2S)-1-(6-chloro-2-oxo-1,2-dihydrospiro[benzo[d][1,3]oxazine-4,3′-pyrrolidin]-1′-yl)-1-oxo-3-phenylpropan-2-yl)sulfamoyl)benzoic acid]",≥ 5000 nM,–
"O=C1Nc2ccc(Cl)c(F)c2[C@@]2(CCCN(C(=O)[C@H](Cc3ccccc3)NC(=O)c3ccc(-n4cn[nH]c4=O)cc3)C2)O1 [Example 247, N-((S)-1-((R)-6-chloro-5-fluoro-2-oxo-1,2-dihydrospiro[benzo[d][1,3]oxazine-4,3′-piperidin]-1′-yl)-1-oxo-3-phenylpropan-2-yl)-4-(5-oxo-1,5-dihydro-4H-1,2,4-triazol-4-yl)benzamide]",–,66.8 nM
"COC(=O)Nc1ccc(C(=O)N[C@@H](CC(=O)N2CCOCC2)C(=O)N2CC[C@@]3(C2)OC(=O)Nc2ccc(Cl)cc23)cc1 [Example 88, methyl (4-(((S)-1-((R)-6-chloro-2-oxo-1,2-dihydrospiro[benzo[d][1,3]oxazine-4,3′-pyrrolidin]-1′-yl)-4-morpholino-1,4-dioxobutan-2-yl)carbamoyl)phenyl)carbamate]",20 nM,–
CC(=O)Oc1cc(=O)[nH]c2ccc(C(=O)N[C@@H](Cc3ccccc3)C(=O)N3CCC[C@@]4(C3)OC(=O)Nc3ccc(Cl)c(F)c34)cc12 [Example 211],–,39.6 nM
"COC(=O)Nc1ccc(C(=O)N[C@@H](CC2CCCC2)C(=O)N2CCC[C@@]3(C2)OC(=O)Nc2ccc(Cl)cc23)cc1 [Example 73, methyl (4-(((S)-1-((R)-6-chloro-2-oxo-1,2-dihydrospiro[benzo[d][1,3]oxazine-4,3′-piperidin]-1′-yl)-3-cyclopentyl-1-oxopropan-2-yl)carbamoyl)phenyl)carbamate]",32 nM,–
"COC(=O)Nc1ccc(C(=O)N[C@@H](Cc2cnc3ccccc3n2)C(=O)N2CCC[C@@]3(C2)OC(=O)Nc2ccc(Cl)c(F)c23)cc1 [Example 69, methyl (4-(((S)-1-((R)-6-chloro-5-fluoro-2-oxo-1,2-dihydrospiro[benzo[d][1,3]oxazine-4,3′-piperidin]-1′-yl)-1-oxo-3-(quinoxalin-2-yl)propan-2-yl)carbamoyl)phenyl)carbamate]",36.2 nM,–
"COC(=O)Nc1ccc(-c2c[nH]c([C@@H](Cc3ccccc3)C(=O)N3CC[C@]4(C3)OC(=O)Nc3ccc(Cl)cc34)n2)cc1 [Example 122c, methyl (4-(2-((R)-1-((S)-6-chloro-2-oxo-1,2-dihydrospiro[benzo[d][1,3]oxazine-4,3′-pyrrolidin]-1′-yl)-1-oxo-3-phenylpropan-2-yl)-1H-imidazol-4-yl)phenyl)carbamate]",5000 nM,–
O=C1Nc2ccc(Cl)cc2C2(CCN(C(=O)[C@H](Cc3ccccc3)NC(=O)C3CCC(CO)CC3)C2)O1 (stereo partly shown) [Example 157],–,3350 nM
"O=C1Nc2ccc(Cl)cc2[C@@]2(CCCN(C(=O)[C@H](Cc3ccccc3)Nc3ccc(-c4ccc(O)nc4)cn3)C2)O1 [Example 295, (R)-6-chloro-1′-((6′-hydroxy-[3,3′-bipyridin]-6-yl)-L-phenylalanyl)spiro[benzo[d][1,3]oxazine-4,3′-piperidin]-2(1H)-one]",10000 nM,–
"O=C1Nc2ccc(Cl)c(F)c2[C@@]2(CCCN(C(=O)[C@H](Cc3cncnc3)NC(=O)c3ccc4[nH]c(=O)ccc4c3)C2)O1 [Example 113, N-((S)-1-((R)-6-chloro-5-fluoro-2-oxo-1,2-dihydrospiro[benzo[d][1,3]oxazine-4,3′-piperidin]-1′-yl)-1-oxo-3-(pyrimidin-5-yl)propan-2-yl)-2-oxo-1,2-dihydroquinoline-6-carboxamide]",15.6 nM,–
COc1ccc(C(=O)N[C@@H](Cc2ccccc2)C(=O)N2CCC3(C2)OC(=O)Nc2ccc(Cl)cc23)nc1 (stereo partly shown) [Example 147],–,4030 nM
O=C1CCCc2cc(C(=O)N[C@@H](Cc3ccccc3)C(=O)N3CCC4(C3)OC(=O)Nc3ccc(Cl)cc34)ccc2N1 (stereo partly shown) [Example 187],–,151 nM
"Nc1nc2ccc(C(=O)N3C[C@H](Cc4ccccc4)C[C@H]3C(=O)N3CC[C@@]4(C3)OC(=O)Nc3ccc(Cl)cc34)cc2s1 [Example 292, (R)-1′-((2S,4R)-1-(2-aminobenzo[d]thiazole-6-carbonyl)-4-benzylpyrrolidine-2-carbonyl)-6-chlorospiro[benzo[d][1,3]oxazine-4,3′-pyrrolidin]-2(1H)-one]",1870 nM,–
"COC(=O)Nc1ccc(C(=O)N[C@H](C(=O)N2CCC3(C2)OC(=O)Nc2ccc(Cl)cc23)[C@H](C)c2ccccc2)cc1 (stereo partly drawn) [Example 33, methyl (4-(((2S,3R)-1-(6-chloro-2-oxo-1,2-dihydrospiro[benzo[d][1,3]oxazine-4,3′-pyrrolidin]-1′-yl)-1-oxo-3-phenylbutan-2-yl)carbamoyl)phenyl)carbamate]",4310 nM,–
"COC(=O)Nc1ccc(C(=O)N[C@@H](CC(=O)NS(=O)(=O)C2CC2)C(=O)N2CC[C@@]3(C2)OC(=O)Nc2ccc(Cl)cc23)cc1 [Example 92, methyl (4-(((S)-1-((R)-6-chloro-2-oxo-1,2-dihydrospiro[benzo[d][1,3]oxazine-4,3′-pyrrolidin]-1′-yl)-4-(cyclopropanesulfonamido)-1,4-dioxobutan-2-yl)carbamoyl)phenyl)carbamate]",56.1 nM,–
COC(=O)Nc1ccc(C(=O)N[C@@H](Cc2ccccc2)C(=O)N2CCC[C@@]3(C2)OC(=O)Nc2ccc(Cl)c(F)c23)nn1 [Example 242],–,177 nM

# Next, values leading:
Ki [1],Ki,SMILES
–,1870 nM,CS(=O)(=O)c1ccc(C(=O)N[C@@H](Cc2ccccc2)C(=O)N2CCC3(C2)OC(=O)Nc2ccc(Cl)cc23)nc1 (stereo partly shown) [Example 148]
815 nM,–,"COC(=O)Nc1ccc(C(=O)N[C@@H](Cc2ccccc2)C(=O)N2CCC[C@]3(C2)OC(=O)Nc2ccc(Cl)cc23)cc1 [Example 3a, methyl (4-(((S)-1-((S)-6-chloro-2-oxo-1,2-dihydrospiro[benzo[d][1,3]oxazine-4,3′-piperidin]-1′-yl)-1-oxo-3-phenylpropan-2-yl)carbamoyl)phenyl)carbamate]"
–,1970 nM,O=C1Nc2ccc(Cl)cc2C2(CCN(C(=O)[C@H](Cc3ccccc3)NC(=O)c3ccc4c(c3)S(=O)(=O)N=CN4)C2)O1 (stereo partly shown) [Example 263]
50.7 nM,–,"COC(=O)Nc1ccc(C(=O)N[C@@H](CCNC(=O)C2CCC2)C(=O)N2CCC[C@@]3(C2)OC(=O)Nc2ccc(Cl)cc23)cc1 [Example 107, methyl (4-(((S)-1-((R)-6-chloro-2-oxo-1,2-dihydrospiro[benzo[d][1,3]oxazine-4,3′-piperidin]-1′-yl)-4-(cyclobutanecarboxamido)-1-oxobutan-2-yl)carbamoyl)phenyl)carbamate]"
8750 nM,–,"COC(=O)Nc1ccc2onc(N[C@@H](Cc3ccccc3)C(=O)N3CCC[C@@]4(C3)OC(=O)Nc3ccc(Cl)cc34)c2c1 [Example 138, methyl (3-(((S)-1-((R)-6-chloro-2-oxo-1,2-dihydrospiro[benzo[d][1,3]oxazine-4,3′-piperidin]-1′-yl)-1-oxo-3-phenylpropan-2-yl)amino)benzo[d]isoxazol-5-yl)carbamate]"
–,298 nM,O=C1Nc2ccc(Cl)cc2C2(CCN(C(=O)[C@H](Cc3ccccc3)NC(=O)c3ccc4cc(C(=O)O)ccc4c3)C2)O1 (stereo partly shown) [Example 259]
99.9 nM,–,"COC(=O)Nc1ccc(C(=O)NC(C[C@H]2CCCO2)C(=O)N2CCC[C@@]3(C2)OC(=O)Nc2ccc(Cl)c(F)c23)cc1 (single isomer, unassigned) [Example 117B]"
–,1600 nM,"O=C1Nc2ccc(Cl)cc2C2(CCN(C(=O)[C@H](Cc3ccccc3)NC(=O)c3ccc(C(=O)O)cc3)C2)O1 (single isomer, unassigned) [Example 140a]"
–,928 nM,"NS(=O)(=O)c1ccc(C(=O)N[C@@H](Cc2ccccc2)C(=O)N2CCC3(C2)OC(=O)Nc2ccc(Cl)cc23)cc1 (stereo partly drawn) [Example 139, N-((2S)-1-(6-chloro-2-oxo-1,2-dihydrospiro[benzo[d][1,3]oxazine-4,3′-pyrrolidin]-1′-yl)-1-oxo-3-phenylpropan-2-yl)-4-sulfamoylbenzamide]"
≥ 5000 nM,–,"CC(=O)Nc1ccc(S(=O)(=O)N[C@@H](Cc2ccccc2)C(=O)N2CCC3(C2)OC(=O)Nc2ccc(Cl)cc23)cc1 (stereo partly drawn) [Example 284, N-(4-(N-((2S)-1-(6-chloro-2-oxo-1,2-dihydrospiro[benzo[d][1,3]oxazine-4,3′-pyrrolidin]-1′-yl)-1-oxo-3-phenylpropan-2-yl)sulfamoyl)phenyl)acetamide]"
–,261 nM,O=C1Cc2ccc(C(=O)N[C@@H](Cc3ccccc3)C(=O)N3CCC4(C3)OC(=O)Nc3ccc(Cl)cc34)cc2N1 (stereo partly shown) [Example 174]
10000 nM,–,"O=C1Nc2ccc(Cl)cc2[C@@]2(CCN(C(=O)[C@H](Cc3ccccc3)Nc3ncc(C(=O)O)cc3F)C2)O1 [Example 294, 6-(((S)-1-((R)-6-chloro-2-oxo-1,2-dihydrospiro[benzo[d][1,3]oxazine-4,3′-pyrrolidin]-1′-yl)-1-oxo-3-phenylpropan-2-yl)amino)-5-fluoronicotinic acid]"
203 nM,–,"COC(=O)Nc1ccc(C(=O)N[C@@H](CC(=O)N2CC(N(C)C)C2)C(=O)N2CCC[C@@]3(C2)OC(=O)Nc2ccc(Cl)cc23)cc1 [Example 96, methyl (4-(((S)-1-((R)-6-chloro-2-oxo-1,2-dihydrospiro[benzo[d][1,3]oxazine-4,3′-piperidin]-1′-yl)-4-(3-(dimethylamino)azetidin-1-yl)-1,4-dioxobutan-2-yl)carbamoyl)phenyl)carbamate]"
246 nM,–,"COC(=O)Nc1ccc(C(=O)N[C@@H](Cc2ccccc2)C(=O)N2CC[C@@]3(C2)OC(=O)Nc2ncc(Cl)cc23)cc1 [Example 1b, methyl (4-(((S)-1-((R)-6-chloro-2-oxo-1,2-dihydrospiro[pyrido[2,3-d][1,3]oxazine-4,3′-pyrrolidin]-1′-yl)-1-oxo-3-phenylpropan-2-yl)carbamoyl)phenyl)carbamate]"
–,1020 nM,N#Cc1ccc(C(=O)N[C@@H](Cc2ccccc2)C(=O)N2CCC3(C2)OC(=O)Nc2ccc(Cl)cc23)cn1 (stereo partly shown) [Example 152]

# Reference: patent publication US10093683B2, “Factor XIa inhibitors” (Merck Sharp & Dohme Corp., priority 2014, dated 2018)
